Source: PMC8950663, “Cyanobacteria Secondary Metabolites as Biotechnological Ingredients in Natural Anti-Aging Cosmetics: Potential to Overcome Hyperpigmentation, Loss of Skin Density and UV Radiation-Deleterious Effects” (Marine Drugs, 2022)

Target: T1, hyaluronidase (HAase)
T1 construct: gene SPAM1
Assay: colorimetric DMAB end-point assay of hyaluronic acid degradation, […] nm
Format: biochemical
Settings: hyaluronic acid substrate (0.7 mg/mL stock), 37 °C, 30 min; positive control

- IC50: 1105 µg/mL
SMILES: O=C(O)c1cc(=O)c2c(OCC(O)COc3cccc4oc(C(=O)O)cc(=O)c34)cccc2o1 [di-sodium cromoglicate]
